Data as given in patent US20240360126A1, “PYRAZOLO[3,4-B]PYRIDINE COMPOUNDS FOR THE TREATMENT OF AUTOIMMUNE DISEASE” (Hoffmann-La Roche Inc., priority 2021, published 2024).
Read-outs that look alike come from different tables or passages of the source.

Legend:
[1] = system: embryonic stem cells (D3) and 3T3 fibroblasts; test: mouse Embryonic Stem Cell Test (mEST); format: cell-based; details: <0.5 negative, >0.6 positive
Description: The in vitro mouse Embryonic Stem Cell Test (mEST) assay is an implemented routine assay at Roche. The original EST was developed by Horst Spielmann and his group in 1997 as an in vitro model for the screening of embryotoxicity, based on a blastocyst-derived permanent embryonic mouse ESC (mESC) D3 cell line derived from mouse 129 strains and was validated by European Centre for the Validation of Alternative Methods (ECVAM).
We further optimized and modified the approach allowing for the application of the assay to pharmaceutical compounds.
The cytotoxicity (inhibition of growth) of 3T3 fibroblasts, which represents differentiated cells and the cytotoxicity of undifferentiated embryonic stem cells (D3) after 10 days of substance treatment serve as two assay endpoints. This is determined by the use of dehydrogenase enzymes, which are present in the intact mitochondria of living cells to convert yellow soluble substrate 3-(4,5-dimethythiazol-2-yl)-2,5-diphenyl tetrazolium bromide (MTT) into a dark blue insoluble formazan product, which gets sequestered within the cells and is detected quantitatively using an absorbance reader (570 nm) after solubilizing the cell membrane.
The third endpoint is the inhibition of differentiation of ES cells into myocards which are cardiac muscle cells after 10 days of treatment. The beating of this cells is evaluated by microscopy. […]

[2] = Human microsome stability assay; format: in vitro ADME; details: 1 μM test compound, 0.5 mg/mL liver microsomal protein, 37° C.
Method: The human microsomal stability assay is used for early assessment of metabolic stability of a test compound in human liver microsomes.
Human liver microsomes (Cat. NO.: 452117, Corning, USA; Cat. NO.:H2610, Xenotech, USA) were preincubated with test compound for 10 minutes at 37° C. in 100 mM potassium phosphate buffer, pH 7.4. The reactions were initiated by adding NADPH regenerating system.
The final incubation mixtures contained 1 μM test compound, 0.5 mg/mL liver microsomal protein, 1 mM MgCl2, 1 mM NADP, 1 unit/mL isocitric dehydrogenase and 6 mM isocitric acid in 100 mM potassium phosphate buffer, pH 7.4. After incubation times of 0, 3, 6, 9, 15 and 30 minutes at 37° C., 300 μL of cold acetonitrile (including internal standard) was added to 100 μL incubation mixture to terminate the reaction. Following precipitation and centrifugation, the amount of compound remaining in the samples were determined by LC-MS/MS. Controls of no NADPH regenerating system at zero and 30 minutes were also prepared and analyzed.

[3] = Single dose pharmacokinetics (PK) study in male Wister-Han rats; format: in vivo; details: rat; for clearance / half-life / AUC(0-t) / Vd / Cmax: male, Wister-Han, plasma; for Vd: read-out: Vss; for F: dose normalized AUC0-last after IV and PO dose
Method: Pharmacokinetic properties of selected compounds were assessed by single dose PK studies in Male Wister-Han Rats (vendor: Beijing Vital River Laboratory Animal Technology Co., Ltd). Briefly, two groups of animals were administered a single dose of respective compound intravenously (IV, bolus) at 2 mg/kg or orally (PO, by gavage) at 10 mg/kg. Blood samples (approximately 150 μL) were collected via Jugular vein at 5 min (only for IV), 15 min, 30 min, 1 h, 2 h, 4 h, 7 h and 24 h post-dose. Blood samples were placed into tubes containing EDTA-K2 anticoagulant and centrifuged at 3000 rpm for 15 min at 4° C. to separate plasma from the samples. After centrifugation, the resulting plasma was transferred to clean tubes for bioanalysis with LC/MS/MS. The pharmacokinetic parameters were calculated using non-compartmental analysis. The volume of distribution (Vss), half-life (T1/2) and clearance (CL) were obtained based on the plasma concentration-time curve after IV dose. The peak concentration (Cmax) was recorded directly from experimental observations after PO dose. The area under the plasma concentration-time curve (AUC0-last) was calculated using the linear trapezoidal rule up to the last detectable concentration. The bioavailability (F) was calculated based on the dose normalized AUC0-last after IV and PO dose.
The Vss of a drug represents the degree to which a drug is distributed in body tissue rather than the plasma. Vss is directly proportional with the amount of drug distributed into tissue. A higher Vss indicates a greater amount of tissue distribution.

[4] = IV 2 mg/kg, read-out: IV AUC0-last
[5] = PO 10 mg/kg, read-out: PO AUC0-last

Row | Predictive scores D12_3 [1] | Clearance of Human microsome [2] [mL/min/kg] | clearance ([3]; IV 2 mg/kg) [mL/min/kg] | half-life ([3]; IV 2 mg/kg) [h] | AUC(0-t) [3, 4] [ng·h/mL] | Vd ([3]; IV 2 mg/kg) [L/kg] | Cmax ([3]; PO 10 mg/kg) [ng/mL] | AUC(0-t) [3, 5] [ng·h/mL] | F [3] [%] | SMILES
1 | 0.44 | 6.2 | 30.2 | 8.84 | 974 | 16.7 | 122 | 1800 | 37 | Cc1cc(N2CC[C@@H](c3ncc(N4CCOC[C@@H](N)C4)cc3C)[C@H](C)C2)c2cnn(C)c2n1 [Example 28, (6S)-4-[6-[(3S,4R)-1-(1,6-dimethylpyrazolo[3,4-b]pyridin-4-yl)-3-methyl-4-piperidyl]-5-methyl-3-pyridyl]-1,4-oxazepan-6-amine]
2 | 0.36 | 8.1 | 32.8 | 7.26 | 1060 | 13.2 | 216 | 2840 | 53.4 | Cc1cc(N2CC[C@H](c3ccc(N4CCOC[C@@H](N)C4)cn3)[C@@H](C)C2)c2cnn(C)c2n1 [Example 40, (6S)-4-[6-[(3R,4S)-1-(1,6-dimethylpyrazolo[3,4-b]pyridin-4-yl)-3-methyl-4-piperidyl]-3-pyridyl]-1,4-oxazepan-6-amine]
